Here are results for ten compounds from US20190375708A1 (VenatoRx Pharmaceuticals, Inc., priority 2018, published 2019).

Data set [1] can be described thus: In vitro cytotoxicity assay (MTT cell viability) in HepG2 cells. It is filed as cell-based, human. Particulars: human. Put shortly:
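CC50 values reflect loss of HepG2 viability after a 7-day exposure at 37 °C, 5% CO2. After 3-4 h with MTT, solubilized formazan was quantified at 492 nm relative to vehicle wells.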

Data set [2] concerns HBV replication in HepAD38 cells. Kind of data set: Anti-HBV replication assay in HepAD38 cells (QPCR of extracellular HBV DNA). The conditions noted are these: Hepatitis B virus, 168 h, 7 days incubation, extracellular HBV DNA by QPCR, read-out: Anti-HBV EC50. It counts as cell-based, HBV (genotype D, serotype ayw). In outline: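 Tet-off HepAD38, 7-day compound exposure ([…], 1 log10 steps, DMSO vehicle), 37 °C. Extracellular HBV DNA by QPCR, copies/mL via standard curve, % inhibition vs vehicle, EC50 by 4-parameter regression. Entecavir as positive control.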

In turn, `Cc1cc(NC(=O)c2c(C)c(C(=O)C(=O)N[C@H](C)C(F)(F)F)n(C)c2C)cnc1F` [Example 165, (R)-N-(6-fluoro-5-methylpyridin-3-yl)-1,2,4-trimethyl-5-(2-oxo-2-((1,1,1-trifluoropropan-2-yl)amino)acetyl)-1H-pyrrole-3-carboxamide] had a CC50 at 7 days in data set [1] of more than 30000 nM. For the same compound, the 50% effective concentration (EC50) in data set [2] was less than 50 nM.

In data set [1], `Cc1c(C(=O)Nc2ccc(F)nc2)c(C)n(C)c1C(=O)C(=O)N[C@H](C)C(F)(F)F` [Example 166, (R)-N-(6-fluoropyridin-3-yl)-1,2,4-trimethyl-5-(2-oxo-2-((1,1,1-trifluoropropan-2-yl)amino)acetyl)-1H-pyrrole-3-carboxamide] displayed a half-maximal cytotoxic concentration (CC50) at 7 days of more than 30000 nM. For the same compound, the EC50 in data set [2] was less than 50 nM.

Compound `COCC(C)(C)NC(=O)C(=O)c1c(C)c(C(=O)Nc2cnc(F)c(C)c2)c(C)n1C` [Example 167, N-(6-fluoro-5-methylpyridin-3-yl)-5-(2-((1-methyoxy-2-methylpropan-2-yl)amino)-2-oxoacetyl)-1,2,4-trimethyl-1H-pyrrole-3-carboxamide] returned a CC50 at 7 days in data set [1] of more than 30000 nM. Besides, the EC50 in data set [2] is less than 50 nM.

The compound `COCC(C)(C)NC(=O)C(=O)c1c(C)c(C(=O)Nc2ccc(F)nc2)c(C)n1C` [Example 168, N-(6-fluoropyridin-3-yl)-5-(2-((1-methoxy-2-methylpropan-2-yl)amino)-2-oxoacetyl)-1,2,4-trimethyl-1H-pyrrole-3-carboxamide] showed a CC50 at 7 days in data set [1] of more than 30000 nM. The EC50 in data set [2] was 50 to 499 nM.

As for `COCC(C)(C)NC(=O)C(=O)c1c(C)c(C(=O)Nc2ccc(F)c(C)c2)c(C)n1C` [Example 169, N-(4-fluoro-3-methylphenyl)-5-(2-((1-methoxy-2-methylpropan-2-yl)amino)-2-oxoacetyl)-1,2,4-trimethyl-1H-pyrrole-3-carboxamide], the CC50 at 7 days in data set [1] was more than 30000 nM. In addition, the EC50 in data set [2] is less than 50 nM.

Turning to `Cc1c(C(=O)Nc2ccnc(F)c2)c(C)n(C)c1C(=O)C(=O)N[C@H](C)C(F)(F)F` [Example 170, (R)—N-(2-fluoropyridin-4-yl)-1,2,4-trimethyl-5-(2-oxo-2-((1,1,1-trifluoropropan-2-yl)amino)acetyl)-1H-pyrrole-3-carboxamide], the CC50 at 7 days in data set [1] was more than 30000 nM. Further, the EC50 in data set [2] was less than 50 nM.

Take `Cc1cc(NC(=O)c2c(C)c(C(=O)C(=O)NCc3cnc(N)s3)n(C)c2C)cnc1F` [Example 171, 5-(2-(((2-aminothiazol-5-yl)methyl)maino)-2-oxoacetyl)-N-(6-fluoro-5-methylpyridin-3-yl)-1,2,4-trimethyl-1H-pyrrole-3-carboxamide]: the CC50 at 7 days in data set [1] is more than 30000 nM. The EC50 in data set [2] was less than 50 nM.

The compound `Cc1c(C(=O)Nc2ccnc(F)c2)c(C)n(C)c1C(=O)C(=O)NC(C)(C)C(F)(F)F` [Example 172, N-(2-fluoropyridin-4-yl)-1,2,4-trimethyl-5-(2-oxo-2-((1,1,1-trifluoro-2-methylpropan-2-yl)amino)acetyl)-1H-pyrrole-3-carboxamide] had a CC50 at 7 days in data set [1] of more than 30000 nM. Also, the EC50 in data set [2] was less than 50 nM.

On to `Cc1cc(NC(=O)c2c(C)c(C(=O)C(=O)NC(C)(C)C(F)(F)F)n(C)c2C)cnc1F` [Example 173, N-(6-fluoro-5-methylpyridin-3-yl)-1,2,4-trimethyl-5-(2-oxo-2-((1,1,1-trifluoro-2-methylpropan-2-yl)amino)acetyl)-1H-pyrrole-3-carboxamide], for which the half-maximal cytotoxic concentration (CC50) at 7 days in data set [1] was more than 30000 nM. For the same compound, the EC50 in data set [2] is less than 50 nM.

Consider `Cc1cc(NC(=O)c2c(C)c(C(=O)C(=O)N[C@H]3CC[C@@H](O)CC3)n(C)c2C)cnc1F` [Example 174, N-(6-fluoro-5-methylpyridin-3-yl)-5-(2-(((1s,4s)-4-hydroxycyclohexyl)amino)-2-oxoacetyl)-1,2,4-trimethyl-1H-pyrrole-3-carboxamide], for which the CC50 at 7 days in data set [1] was more than 30000 nM. In addition, the concentration for a half-maximal effect (EC50) in data set [2] was 50 to 499 nM.

What is called CC50 is the concentration giving 50% cytotoxicity. High values mean better tolerance by the cells, low ones harm at low concentration. As usually defined, the EC50 is the concentration needed to bring the measured effect to its halfway point.
